# Laboratory results published in ChEMBL document CHEMBL4316596, “Antimicrobial Peptides with High Proteolytic Resistance for Combating Gram-Negative Bacteria” (J Med Chem, 2019).
# Test system: Escherichia coli
# Experiment: Bactericidal activity against Escherichia coli ATCC 25922 incubated for 4 hrs followed by culture spread on agar plates and cultured overnight in presence of NH4Cl
# Assay type: functional
# Details: ATCC 25922, 4 h, read-out: MBC>99.9
row,Substance,MBC [µM]
1,H-IRPIIRPIIRPIIRPIIRPIIRPI-NH2,8

# Test system: Acinetobacter baumannii
# Experiment: Antimicrobial activity against Acinetobacter baumannii after 24 hrs by NCCLS-protocol based assay
# Assay type: functional
# Details: not given
row,Substance,MIC95 [µM]
1,H-IRPIIRPIIRPIIRPIIRPIIRPI-NH2,4

# Test system: Acinetobacter baumannii
# Experiment: Bactericidal activity against Acinetobacter baumannii incubated for 4 hrs followed by culture spread on agar plates and cultured overnight
# Assay type: functional
# Details: read-out: MBC>99.9
row,Substance,MBC [µM]
1,H-IRPIIRPIIRPIIRPIIRPIIRPI-NH2,8

# Test system: Escherichia coli
# Experiment: Bactericidal activity against Escherichia coli ATCC 25922 incubated for 4 hrs followed by culture spread on agar plates and cultured overnight in presence of 50% serum albumin
# Assay type: functional
# Details: ATCC 25922, 4 h, read-out: MBC>99.9
row,Substance,MBC [µM]
1,H-IRPIIRPIIRPIIRPIIRPIIRPI-NH2,64

# Test system: Pseudomonas aeruginosa
# Experiment: Bactericidal activity against Pseudomonas aeruginosa 25349 clinical isolates incubated for 4 hrs followed by culture spread on agar plates and cultured overnight
# Assay type: functional
# Details: Pseudomonas aeruginosa, 25349, 4 h; read-out: MBC>99.9
row,Substance,MBC [µM]
1,H-IRPIIRPIIRPIIRPIIRPIIRPI-NH2,> 64

# Test system: Escherichia coli
# Experiment: Bactericidal activity against Escherichia coli ATCC 25922 incubated for 4 hrs followed by culture spread on agar plates and cultured overnight
# Assay type: functional
# Details: ATCC 25922, 4 h, read-out: MBC>99.9
row,Substance,MBC [µM]
1,H-IRPIIRPIIRPIIRPIIRPIIRPI-NH2,2

# Test system: Salmonella typhimurium
# Experiment: Bactericidal activity against Salmonella typhimurium ATCC 14028 incubated for 4 hrs followed by culture spread on agar plates and cultured overnight
# Assay type: functional, Salmonella enterica subsp. enterica serovar Typhimurium
# Details: Salmonella enterica, ATCC 14028, 4 h; read-out: MBC>99.9
row,Substance,MBC [µM]
1,H-IRPIIRPIIRPIIRPIIRPIIRPI-NH2,4

# Test system: Escherichia coli
# Experiment: Bactericidal activity against Escherichia coli K99 incubated for 4 hrs followed by culture spread on agar plates and cultured overnight
# Assay type: functional
# Details: K99, 4 h, read-out: MBC>99.9
row,Substance,MBC [µM]
1,H-IRPIIRPIIRPIIRPIIRPIIRPI-NH2,4

# Test system: Pseudomonas aeruginosa
# Experiment: Bactericidal activity against Pseudomonas aeruginosa CICC 21625 clinical isolates incubated for 4 hrs followed by culture spread on agar plates and cultured overnight
# Assay type: functional
# Details: CICC 21625, 4 h, read-out: MBC>99.9
row,Substance,MBC [µM]
1,H-IRPIIRPIIRPIIRPIIRPIIRPI-NH2,> 64

# Test system: Escherichia coli
# Experiment: Bactericidal activity against Escherichia coli ATCC 25922 incubated for 4 hrs followed by culture spread on agar plates and cultured overnight in presence of ZnCl2
# Assay type: functional
# Details: ATCC 25922, 4 h, read-out: MBC>99.9
row,Substance,MBC [µM]
1,H-IRPIIRPIIRPIIRPIIRPIIRPI-NH2,4

# Test system: Escherichia coli
# Experiment: Bactericidal activity against Escherichia coli 078 incubated for 4 hrs followed by culture spread on agar plates and cultured overnight
# Assay type: functional
# Details: Escherichia coli, 078, 4 h; read-out: MBC>99.9
row,Substance,MBC [µM]
1,H-IRPIIRPIIRPIIRPIIRPIIRPI-NH2,2

# Test system: Salmonella typhimurium
# Experiment: Antimicrobial activity against Salmonella typhimurium ATCC 14028 after 24 hrs by NCCLS-protocol based assay
# Assay type: functional, Salmonella enterica subsp. enterica serovar Typhimurium
# Details: Salmonella enterica, ATCC 14028, 24 h
row,Substance,MIC95 [µM]
1,H-IRPIIRPIIRPIIRPIIRPIIRPI-NH2,4

# Test system: Escherichia coli
# Experiment: Bactericidal activity against Escherichia coli ATCC 25922 incubated for 4 hrs followed by culture spread on agar plates and cultured overnight in presence of KCl
# Assay type: functional
# Details: ATCC 25922, 4 h, read-out: MBC>99.9
row,Substance,MBC [µM]
1,H-IRPIIRPIIRPIIRPIIRPIIRPI-NH2,4

# Test system: Pseudomonas aeruginosa
# Experiment: Antimicrobial activity against Pseudomonas aeruginosa 25349 clinical isolates after 24 hrs by NCCLS-protocol based assay
# Assay type: functional
# Details: Pseudomonas aeruginosa, 25349, 24 h
row,Substance,MIC95 [µM]
1,H-IRPIIRPIIRPIIRPIIRPIIRPI-NH2,> 64

# Test system: Escherichia coli
# Experiment: Bactericidal activity against Escherichia coli ATCC 25922 incubated for 4 hrs followed by culture spread on agar plates and cultured overnight in presence of 25% serum albumin
# Assay type: functional
# Details: ATCC 25922, 4 h, read-out: MBC>99.9
row,Substance,MBC [µM]
1,H-IRPIIRPIIRPIIRPIIRPIIRPI-NH2,32

# Test system: Escherichia coli
# Experiment: Bactericidal activity against Escherichia coli UB1005 incubated for 4 hrs followed by culture spread on agar plates and cultured overnight
# Assay type: functional
# Details: UB1005, 4 h, read-out: MBC>99.9
row,Substance,MBC [µM]
1,H-IRPIIRPIIRPIIRPIIRPIIRPI-NH2,2

# Test system: Escherichia coli
# Experiment: Bactericidal activity against Escherichia coli ATCC 25922 incubated for 4 hrs followed by culture spread on agar plates and cultured overnight in presence of MgCl2
# Assay type: functional
# Details: ATCC 25922, 4 h, read-out: MBC>99.9
row,Substance,MBC [µM]
1,H-IRPIIRPIIRPIIRPIIRPIIRPI-NH2,8

# Test system: Escherichia coli
# Experiment: Bactericidal activity against Escherichia coli ATCC 25922 incubated for 4 hrs followed by culture spread on agar plates and cultured overnight in presence of FeCl3
# Assay type: functional
# Details: ATCC 25922, 4 h, read-out: MBC>99.9
row,Substance,MBC [µM]
1,H-IRPIIRPIIRPIIRPIIRPIIRPI-NH2,8

# Test system: Escherichia coli
# Experiment: Bactericidal activity against Escherichia coli ATCC 25922 incubated for 4 hrs followed by culture spread on agar plates and cultured overnight in presence of CaCl2
# Assay type: functional
# Details: ATCC 25922, 4 h, read-out: MBC>99.9
row,Substance,MBC [µM]
1,H-IRPIIRPIIRPIIRPIIRPIIRPI-NH2,> 128

# Test system: not listed separately
# Experiment: Antimicrobial activity against Salmonella pullorum C7913 after 24 hrs by NCCLS-protocol based assay
# Assay type: functional, Salmonella enterica subsp. enterica serovar Pullorum
# Details: Salmonella enterica, C7913, 24 h
row,Substance,MIC95 [µM]
1,H-IRPIIRPIIRPIIRPIIRPIIRPI-NH2,4

# Test system: Pseudomonas aeruginosa
# Experiment: Antimicrobial activity against Pseudomonas aeruginosa ATCC 27853 after 24 hrs by NCCLS-protocol based assay
# Assay type: functional
# Details: ATCC 27853, 24 h
row,Substance,MIC95 [µM]
1,H-IRPIIRPIIRPIIRPIIRPIIRPI-NH2,8

# Test system: Salmonella typhimurium
# Experiment: Bactericidal activity against Salmonella typhimurium C7731 incubated for 4 hrs followed by culture spread on agar plates and cultured overnight
# Assay type: functional, Salmonella enterica subsp. enterica serovar Typhimurium
# Details: Salmonella enterica, C7731, 4 h; read-out: MBC>99.9
row,Substance,MBC [µM]
1,H-IRPIIRPIIRPIIRPIIRPIIRPI-NH2,4

# Test system: Pseudomonas aeruginosa
# Experiment: Bactericidal activity against Pseudomonas aeruginosa PAO1 incubated for 4 hrs followed by culture spread on agar plates and cultured overnight
# Assay type: functional
# Details: PAO1, 4 h, read-out: MBC>99.9
row,Substance,MBC [µM]
1,H-IRPIIRPIIRPIIRPIIRPIIRPI-NH2,16

# Test system: Pseudomonas aeruginosa
# Experiment: Antimicrobial activity against Pseudomonas aeruginosa PAO1 after 24 hrs by NCCLS-protocol based assay
# Assay type: functional
# Details: PAO1, 24 h
row,Substance,MIC95 [µM]
1,H-IRPIIRPIIRPIIRPIIRPIIRPI-NH2,8

# Test system: Escherichia coli
# Experiment: Antimicrobial activity against Escherichia coli K99 after 24 hrs by NCCLS-protocol based assay
# Assay type: functional
# Details: K99, 24 h
row,Substance,MIC95 [µM]
1,H-IRPIIRPIIRPIIRPIIRPIIRPI-NH2,2

# Test system: Escherichia coli
# Experiment: Antimicrobial activity against Escherichia coli K88 after 24 hrs by NCCLS-protocol based assay
# Assay type: functional
# Details: K88, 24 h
row,Substance,MIC95 [µM]
1,H-IRPIIRPIIRPIIRPIIRPIIRPI-NH2,1

# Test system: Escherichia coli
# Experiment: Bactericidal activity against Escherichia coli K88 incubated for 4 hrs followed by culture spread on agar plates and cultured overnight
# Assay type: functional
# Details: K88, 4 h, read-out: MBC>99.9
row,Substance,MBC [µM]
1,H-IRPIIRPIIRPIIRPIIRPIIRPI-NH2,1

# Test system: Pseudomonas aeruginosa
# Experiment: Antimicrobial activity against Pseudomonas aeruginosa 26305 clinical isolates after 24 hrs by NCCLS-protocol based assay
# Assay type: functional
# Details: Pseudomonas aeruginosa, 26305, 24 h
row,Substance,MIC95 [µM]
1,H-IRPIIRPIIRPIIRPIIRPIIRPI-NH2,> 64

# Test system: Klebsiella pneumoniae
# Experiment: Bactericidal activity against Klebsiella pneumoniae incubated for 4 hrs followed by culture spread on agar plates and cultured overnight
# Assay type: functional
# Details: read-out: MBC>99.9
row,Substance,MBC [µM]
1,H-IRPIIRPIIRPIIRPIIRPIIRPI-NH2,8

# Test system: Pseudomonas aeruginosa
# Experiment: Bactericidal activity against Pseudomonas aeruginosa CICC 21630 clinical isolates incubated for 4 hrs followed by culture spread on agar plates and cultured overnight
# Assay type: functional
# Details: CICC 21630, 4 h, read-out: MBC>99.9
row,Substance,MBC [µM]
1,H-IRPIIRPIIRPIIRPIIRPIIRPI-NH2,> 64

# Test system: not listed separately
# Experiment: Bactericidal activity against Salmonella pullorum C7913 incubated for 4 hrs followed by culture spread on agar plates and cultured overnight
# Assay type: functional, Salmonella enterica subsp. enterica serovar Pullorum
# Details: Salmonella enterica, C7913, 4 h; read-out: MBC>99.9
row,Substance,MBC [µM]
1,H-IRPIIRPIIRPIIRPIIRPIIRPI-NH2,8

# Test system: Salmonella typhimurium
# Experiment: Antimicrobial activity against Salmonella typhimurium C7731 after 24 hrs by NCCLS-protocol based assay
# Assay type: functional, Salmonella enterica subsp. enterica serovar Typhimurium
# Details: Salmonella enterica, C7731, 24 h
row,Substance,MIC95 [µM]
1,H-IRPIIRPIIRPIIRPIIRPIIRPI-NH2,4

# Test system: Pseudomonas aeruginosa
# Experiment: Antimicrobial activity against Pseudomonas aeruginosa CICC 21630 clinical isolates after 24 hrs by NCCLS-protocol based assay
# Assay type: functional
# Details: CICC 21630, 24 h
row,Substance,MIC95 [µM]
1,H-IRPIIRPIIRPIIRPIIRPIIRPI-NH2,> 64

# Test system: Pseudomonas aeruginosa
# Experiment: Bactericidal activity against Pseudomonas aeruginosa 26305 clinical isolates incubated for 4 hrs followed by culture spread on agar plates and cultured overnight
# Assay type: functional
# Details: Pseudomonas aeruginosa, 26305, 4 h; read-out: MBC>99.9
row,Substance,MBC [µM]
1,H-IRPIIRPIIRPIIRPIIRPIIRPI-NH2,> 64

# Test system: Escherichia coli
# Experiment: Antimicrobial activity against Escherichia coli ATCC 25922 after 24 hrs by NCCLS-protocol based assay
# Assay type: functional
# Details: ATCC 25922, 24 h
row,Substance,MIC95 [µM]
1,H-IRPIIRPIIRPIIRPIIRPIIRPI-NH2,2

# Test system: Escherichia coli
# Experiment: Antimicrobial activity against Escherichia coli 078 after 24 hrs by NCCLS-protocol based assay
# Assay type: functional
# Details: Escherichia coli, 078, 24 h
row,Substance,MIC95 [µM]
1,H-IRPIIRPIIRPIIRPIIRPIIRPI-NH2,2

# Test system: Pseudomonas aeruginosa
# Experiment: Bactericidal activity against Pseudomonas aeruginosa ATCC 27853 incubated for 4 hrs followed by culture spread on agar plates and cultured overnight
# Assay type: functional
# Details: ATCC 27853, 4 h, read-out: MBC>99.9
row,Substance,MBC [µM]
1,H-IRPIIRPIIRPIIRPIIRPIIRPI-NH2,16

# Test system: Pseudomonas aeruginosa
# Experiment: Antimicrobial activity against Pseudomonas aeruginosa CICC 21625 clinical isolates after 24 hrs by NCCLS-protocol based assay
# Assay type: functional
# Details: CICC 21625, 24 h
row,Substance,MIC95 [µM]
1,H-IRPIIRPIIRPIIRPIIRPIIRPI-NH2,> 64

# Test system: Escherichia coli
# Experiment: Bactericidal activity against Escherichia coli ATCC 25922 incubated for 4 hrs followed by culture spread on agar plates and cultured overnight in presence of NaCl
# Assay type: functional
# Details: ATCC 25922, 4 h, read-out: MBC>99.9
row,Substance,MBC [µM]
1,H-IRPIIRPIIRPIIRPIIRPIIRPI-NH2,32

# Test system: Escherichia coli
# Experiment: Bactericidal activity against Escherichia coli ATCC 25922 incubated for 4 hrs followed by culture spread on agar plates and cultured overnight in presence of 12.5% serum albumin
# Assay type: functional
# Details: ATCC 25922, 4 h, read-out: MBC>99.9
row,Substance,MBC [µM]
1,H-IRPIIRPIIRPIIRPIIRPIIRPI-NH2,16

# Test system: Escherichia coli
# Experiment: Antimicrobial activity against Escherichia coli UB1005 after 24 hrs by NCCLS-protocol based assay
# Assay type: functional
# Details: UB1005, 24 h
row,Substance,MIC95 [µM]
1,H-IRPIIRPIIRPIIRPIIRPIIRPI-NH2,2

# Test system: Klebsiella pneumoniae
# Experiment: Antimicrobial activity against Klebsiella pneumoniae after 24 hrs by NCCLS-protocol based assay
# Assay type: functional
# Details: not given
row,Substance,MIC95 [µM]
1,H-IRPIIRPIIRPIIRPIIRPIIRPI-NH2,16
